Patent US7238701B2, “Substituted tetrahydrobenzothienopyrimidinamine compounds useful for treating hyper-proliferative disorders” (Bayer Pharmaceuticals Corporation, priority 2003, dated 2007)

How the values were obtained:
[1] = tested on: A431cells (human epidermoid carcinoma); test: In vitro tumor cell proliferation assay (Cell Titer-Glo luminescent cell viability), A431 cells; type: cell-based; details: A-431, 72 h, 72 hours drug exposure, 10% Fetal Bovine Serum, ATP luminescence readout, read-out: IC50 (50% inhibition of cell proliferation)
Summary of the method: (§1)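 ATP luminescence (CellTiter-Glo) measured proliferation after 72 h compound exposure at 37 °C, giving IC50 values. Serial dilutions spanning 64 pM–100 μM in 0.1% DMSO were applied one day after plating 2.5×10^3 cells/well in RPMI plus 10% fetal bovine serum.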

[2] = tested on: BT474 (human breast carcinoma); test: In vitro tumor cell proliferation assay (Cell Titer-Glo luminescent cell viability), BT474 cells; type: cell-based; details: BT-474, 72 hours drug exposure, 10% Fetal Bovine Serum, ATP luminescence readout, read-out: IC50 (50% inhibition of cell proliferation)
Summary of the method: as §1

CS(=O)(=O)CCNCCC1CCc2c(sc3ncnc(Nc4ccc(OCc5ccccn5)c(Cl)c4)c23)C1 (stereo not drawn) [Example 178, N-[3-chloro-4-(pyridin-2-ylmethoxy)phenyl]-7-(2-{[2-(methylsulfonyl)ethyl]amino}ethyl)-5,6,7,8-tetrahydro[1]benzothieno[2,3-d]pyrimidin-4-amine]
IC50 [1]: < 5 µM | IC50 [2]: < 5 µM

OCCN(CCO)CCC1CCc2c(sc3ncnc(Nc4ccc(OCc5ccccn5)c(Cl)c4)c23)C1 (stereo not drawn) [Example 179, 2,2′-{[2-(4-{[3-chloro-4-(pyridin-2-ylmethoxy)phenyl]amino}-5,6,7,8-tetrahydro[1]benzothieno[2,3-d]pyrimidin-7-yl)ethyl]imino}diethanol]
IC50 [1]: < 5 µM | IC50 [2]: < 5 µM

OCCNCCC1CCc2c(sc3ncnc(Nc4ccc(OCc5ccccn5)c(Cl)c4)c23)C1 (stereo not drawn) [Example 180, 2-{[2-(4-{[3-chloro-4-(pyridin-2-ylmethoxy)phenyl]amino}-5,6,7,8-tetrahydro[1]benzothieno[2,3-d]pyrimidin-7-yl)ethyl]amino}ethanol]
IC50 [1]: < 50 µM | IC50 [2]: < 5 µM

CN(C)[C@@H]1CCN(CCC2CCc3c(sc4ncnc(Nc5ccc(OCc6ccccn6)c(Cl)c5)c34)C2)C1 (stereo partly drawn) [Example 181, N-[3-chloro-4-(pyridin-2-ylmethoxy)phenyl]-7-{2-[(3R)-3-(dimethylamino)pyrrolidin-1-yl]ethyl}-5,6,7,8-tetrahydro[1]benzothieno[2,3-d]pyrimidin-4-amine]
IC50 [1]: < 50 µM | IC50 [2]: < 5 µM

Clc1cc(Nc2ncnc3sc4c(c23)CCC(CCn2ccnc2)C4)ccc1OCc1ccccn1 (stereo not drawn) [Example 182, N-[3-chloro-4-(pyridin-2-ylmethoxy)phenyl]-7-[2-(1H-imidazol-1-yl)ethyl]-5,6,7,8-tetrahydro[1]benzothieno[2,3-d]pyrimidin-4-amine]
IC50 [1]: < 50 µM | IC50 [2]: < 5 µM

CN1CCN(CCC2CCc3c(sc4ncnc(Nc5ccc(OCc6ccccn6)c(Cl)c5)c34)C2)CC1 (stereo not drawn) [Example 183, N-[3-chloro-4-(pyridin-2-ylmethoxy)phenyl]-7-[2-(4-methylpiperazin-1-yl)ethyl]-5,6,7,8-tetrahydro[1]benzothieno[2,3-d]pyrimidin-4-amine]
IC50 [1]: < 5 µM | IC50 [2]: < 5 µM

CN(C)CCNCCC1CCc2c(sc3ncnc(Nc4ccc(OCc5ccccn5)c(Cl)c4)c23)C1 (stereo not drawn) [Example 184, N′-[2-(4-{[3-chloro-4-(pyridin-2-ylmethoxy)phenyl]amino}-5,6,7,8-tetrahydro[1]benzothieno[2,3-d]pyrimidin-7-yl)ethyl]-N,N-dimethylethane-1,2-diamine]
IC50 [1]: < 5 µM | IC50 [2]: < 5 µM

CN(C)CCC1CCc2c(sc3ncnc(Nc4ccc(OCc5ccccn5)c(Cl)c4)c23)C1 (stereo not drawn) [Example 185, N-[3-chloro-4-(pyridin-2-ylmethoxy)phenyl]-7-[2-(dimethylamino)ethyl]-5,6,7,8-tetrahydro[1]benzothieno[2,3-d]pyrimidin-4-amine]
IC50 [1]: < 5 µM | IC50 [2]: < 5 µM

O[C@H]1CCN(CCC2CCc3c(sc4ncnc(Nc5ccc(OCc6cccc(F)c6)c(Cl)c5)c34)C2)C1 (stereo partly drawn) [Example 186, (3S)-1-{2-[4-({3-chloro-4-[(3-fluorobenzyl)oxy]phenyl}amino)-5,6,7,8-tetrahydro[1]benzothieno[2,3-d]pyrimidin-7-yl]ethyl}pyrrolidin-3-ol]
IC50 [1]: < 5 µM | IC50 [2]: < 5 µM

CNCCC1CCc2c(sc3ncnc(Nc4ccc(OCc5ccccn5)c(Cl)c4)c23)C1 (stereo not drawn) [Example 187, N-[3-chloro-4-(pyridin-2-ylmethoxy)phenyl]-7-[2-(methylamino)ethyl]-5,6,7,8-tetrahydro[1]benzothieno[2,3-d]pyrimidin-4-amine]
IC50 [1]: < 50 µM | IC50 [2]: < 5 µM

COCCN1CCN(CCC2CCc3c(sc4ncnc(Nc5ccc(OCc6ccccn6)c(Cl)c5)c34)C2)CC1 (stereo not drawn) [Example 188, N-[3-chloro-4-(pyridin-2-ylmethoxy)phenyl]-7-{2-[4-(2-methoxyethyl)piperazin-1-yl]ethyl}-5,6,7,8-tetrahydro[1]benzothieno[2,3-d]pyrimidin-4-amine]
IC50 [1]: < 50 µM | IC50 [2]: < 5 µM

COCCN(C)CCC1CCc2c(sc3ncnc(Nc4ccc(OCc5ccccn5)c(Cl)c4)c23)C1 (stereo not drawn) [Example 189, N-[3-chloro-4-(pyridin-2-ylmethoxy)phenyl]-7-{2-[(2-methoxyethyl)(methyl)amino]ethyl}-5,6,7,8-tetrahydro[1]benzothieno[2,3-d]pyrimidin-4-amine]
IC50 [1]: < 5 µM | IC50 [2]: < 5 µM

Clc1cc(Nc2ncnc3sc4c(c23)CCC(CCN2CCCC2)C4)ccc1OCc1ccccn1 (stereo not drawn) [Example 190, N-[3-chloro-4-(pyridin-2-ylmethoxy)phenyl]-7-(2-pyrrolidin-1-ylethyl)-5,6,7,8-tetrahydro[1]benzothieno[2,3-d]pyrimidin-4-amine]
IC50 [1]: < 5 µM | IC50 [2]: < 5 µM

Clc1cc(Nc2ncnc3sc4c(c23)CCC(CCN2CCCCC2)C4)ccc1OCc1ccccn1 (stereo not drawn) [Example 191, N-[3-chloro-4-(pyridin-2-ylmethoxy)phenyl]-7-(2-piperidin-1-ylethyl)-5,6,7,8-tetrahydro[1]benzothieno[2,3-d]pyrimidin-4-amine]
IC50 [1]: < 5 µM | IC50 [2]: < 5 µM

Clc1cc(Nc2ncnc3sc4c(c23)CCC(CCNCCN2CCOCC2)C4)ccc1OCc1ccccn1 (stereo not drawn) [Example 192, N-[3-chloro-4-(pyridin-2-ylmethoxy)phenyl]-7-{2-[(2-morpholin-4-ylethyl)amino]ethyl}-5,6,7,8-tetrahydro[1]benzothieno[2,3-d]pyrimidin-4-amine]
IC50 [1]: < 5 µM | IC50 [2]: < 5 µM

CCNCCC1CCc2c(sc3ncnc(Nc4ccc(OCc5ccccn5)c(Cl)c4)c23)C1 (stereo not drawn) [Example 193, N-[3-chloro-4-(pyridin-2-ylmethoxy)phenyl]-7-[2-(ethylamino)ethyl]-5,6,7,8-tetrahydro[1]benzothieno[2,3-d]pyrimidin-4-amine]
IC50 [1]: < 5 µM | IC50 [2]: < 5 µM

CCN(CC)CCC1CCc2c(sc3ncnc(Nc4ccc(OCc5ccccn5)c(Cl)c4)c23)C1 (stereo not drawn) [Example 194, N-[3-chloro-4-(pyridin-2-ylmethoxy)phenyl]-7-[2-(diethylamino)ethyl]-5,6,7,8-tetrahydro[1]benzothieno[2,3-d]pyrimidin-4-amine]
IC50 [1]: < 5 µM | IC50 [2]: < 5 µM

COCCCNCCC1CCc2c(sc3ncnc(Nc4ccc(OCc5ccccn5)c(Cl)c4)c23)C1 (stereo not drawn) [Example 195, N-[3-chloro-4-(pyridin-2-ylmethoxy)phenyl]-7-{2-[(3-methoxypropyl)amino]ethyl}-5,6,7,8-tetrahydro[1]benzothieno[2,3-d]pyrimidin-4-amine]
IC50 [1]: < 5 µM | IC50 [2]: < 5 µM

Clc1cc(Nc2ncnc3sc4c(c23)CCC(CCN2CCN(Cc3ccncc3)CC2)C4)ccc1OCc1ccccn1 (stereo not drawn) [Example 196, N-[3-chloro-4-(pyridin-2-ylmethoxy)phenyl]-7-{2-[4-(pyridin-4-ylmethyl)piperazin-1-yl]ethyl}-5,6,7,8-tetrahydro[1]benzothieno[2,3-d]pyrimidin-4-amine]
IC50 [1]: < 5 µM | IC50 [2]: < 5 µM

O[C@@H]1CCN(CCC2CCc3c(sc4ncnc(Nc5ccc(OCc6cccc(F)c6)c(Cl)c5)c34)C2)C1 (stereo partly drawn) [Example 197, (3R)-1-{2-[4-({3-chloro-4-[(3-fluorobenzyl)oxy]phenyl}amino)-5,6,7,8-tetrahydro[1]benzothieno[2,3-d]pyrimidin-7-yl]ethyl}pyrrolidin-3-ol]
IC50 [1]: < 5 µM | IC50 [2]: < 5 µM

COC[C@H]1CCCN1CCC1CCc2c(sc3ncnc(Nc4ccc(OCc5cccc(F)c5)c(Cl)c4)c23)C1 (stereo partly drawn) [Example 198, N-{3-chloro-4-[(3-fluorobenzyl)oxy]phenyl}-7-{2-[(2R)-2-(methoxymethyl)pyrrolidin-1-yl]ethyl}-5,6,7,8-tetrahydro[1]benzothieno[2,3-d]pyrimidin-4-amine]
IC50 [1]: < 5 µM | IC50 [2]: < 5 µM

Fc1cccc(COc2ccc(Nc3ncnc4sc5c(c34)CCC(CCN3CCSCC3)C5)cc2Cl)c1 (stereo not drawn) [Example 199, N-{3-chloro-4-[(3-fluorobenzyl)oxy]phenyl}-7-(2-thiomorpholin-4-ylethyl)-5,6,7,8-tetrahydro[1]benzothieno[2,3-d]pyrimidin-4-amine]
IC50 [1]: < 50 µM | IC50 [2]: < 5 µM

CS(=O)(=O)CCNCCC1CCc2c(sc3ncnc(Nc4ccc(OCc5cccc(F)c5)c(Cl)c4)c23)C1 (stereo not drawn) [Example 200, N-{3-chloro-4-[(3-fluorobenzyl)oxy]phenyl}-7-(2-{[2-(methylsulfonyl)ethyl]amino}ethyl)-5,6,7,8-tetrahydro[1]benzothieno[2,3-d]pyrimidin-4-amine]
IC50 [1]: < 5 µM | IC50 [2]: < 5 µM

C=CC1(O)CCc2c(sc3ncnc(Nc4ccc(F)c(Cl)c4)c23)C1 (stereo not drawn) [Example 201, 4-[(3-chloro-4-fluorophenyl)amino]-7-vinyl-5,6,7,8-tetrahydro[1]benzothieno[2,3-d]pyrimidin-7-ol]
IC50 [1]: < 50 µM | IC50 [2]: < 50 µM

CS(=O)(=O)OCCC1CCc2c(sc3ncnc(Nc4ccc5c(cnn5Cc5ccccc5)c4)c23)C1 (stereo not drawn) [Example 202, 2-{4-[(1-benzyl-1H-indazol-5-yl)amino]-5,6,7,8-tetrahydro[1]benzothieno[2,3-d]pyrimidin-7-yl}ethyl methanesulfonate]
IC50 [1]: < 5 µM | IC50 [2]: < 5 µM

OCCC1CCc2c(sc3ncnc(Nc4ccc5c(cnn5Cc5ccccc5)c4)c23)C1 (stereo not drawn) [Example 203, 2-[4-(1-Benzyl-1H-indazol-5-ylamino)-5,6,7,8-tetrahydro-benzo[4,5]thieno[2,3-d]pyrimidin-7-yl]-ethanol]
IC50 [1]: < 5 µM | IC50 [2]: < 5 µM

CCOC(=O)CC1CCc2c(sc3ncnc(Nc4ccc5c(cnn5Cc5ccccc5)c4)c23)C1 (stereo not drawn) [Example 204, ethyl {4-[(1-benzyl-1H-indazol-5-yl)amino]-5,6,7,8-tetrahydro[1]benzothieno[2,3-d]pyrimidin-7-yl}acetate]
IC50 [1]: < 50 µM | IC50 [2]: < 5 µM
